Experimental data as given in ChEMBL document CHEMBL1932915, “Synthesis and biological evaluation of sialic acid derivatives containing a long hydrophobic chain at the anomeric position and their C-5 linked polymers as potent influenza virus inhibitors” (Bioorg Med Chem, 2012).

Experiments:
Neuraminidase = Neuraminidase (Influenza A virus, UniProt B4URF0); test: Inhibition of Avian influenza virus A/DK/HK/313/78 (H5N3) neuraminidase using 4-MU-Neu5Ac as substrate after 30 mins by fluorimetry
[1] = molecular target: Neuraminidase (Influenza A virus (A/Aichi/2/1968(H3N2)), UniProt Q75VQ4); test: Inhibition of Human influenza virus A/Aichi/2/68 (H3N2) neuraminidase using 4-MU-Neu5Ac as substrate after 30 mins by fluorimetry
Chain of Neuraminidase (Influenza A virus (A/Aichi/2/1968(H3N2)), UniProt Q75VQ4) (Q75VQ4 whole entry): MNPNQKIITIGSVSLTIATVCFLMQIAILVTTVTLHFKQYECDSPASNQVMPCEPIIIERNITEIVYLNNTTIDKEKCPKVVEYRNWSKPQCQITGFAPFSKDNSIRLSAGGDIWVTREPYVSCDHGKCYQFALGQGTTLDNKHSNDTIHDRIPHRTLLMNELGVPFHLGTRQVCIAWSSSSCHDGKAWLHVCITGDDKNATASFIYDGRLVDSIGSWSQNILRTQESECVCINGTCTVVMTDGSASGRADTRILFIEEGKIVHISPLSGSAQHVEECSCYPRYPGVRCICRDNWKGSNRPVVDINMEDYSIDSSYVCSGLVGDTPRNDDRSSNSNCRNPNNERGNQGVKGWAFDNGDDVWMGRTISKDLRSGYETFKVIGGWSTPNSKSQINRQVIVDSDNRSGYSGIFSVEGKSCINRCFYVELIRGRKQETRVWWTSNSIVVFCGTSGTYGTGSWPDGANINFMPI

[2] = molecular target: Neuraminidase (Influenza A virus (A/Puerto Rico/8/1934(H1N1)), UniProt P03468); test: Inhibition of Human influenza virus A/PR/8/34 (H1N1) neuraminidase using 4-MU-Neu5Ac as substrate after 30 mins by fluorimetry
Chain of Neuraminidase (Influenza A virus (A/Puerto Rico/8/1934(H1N1)), UniProt P03468) (P03468 whole entry): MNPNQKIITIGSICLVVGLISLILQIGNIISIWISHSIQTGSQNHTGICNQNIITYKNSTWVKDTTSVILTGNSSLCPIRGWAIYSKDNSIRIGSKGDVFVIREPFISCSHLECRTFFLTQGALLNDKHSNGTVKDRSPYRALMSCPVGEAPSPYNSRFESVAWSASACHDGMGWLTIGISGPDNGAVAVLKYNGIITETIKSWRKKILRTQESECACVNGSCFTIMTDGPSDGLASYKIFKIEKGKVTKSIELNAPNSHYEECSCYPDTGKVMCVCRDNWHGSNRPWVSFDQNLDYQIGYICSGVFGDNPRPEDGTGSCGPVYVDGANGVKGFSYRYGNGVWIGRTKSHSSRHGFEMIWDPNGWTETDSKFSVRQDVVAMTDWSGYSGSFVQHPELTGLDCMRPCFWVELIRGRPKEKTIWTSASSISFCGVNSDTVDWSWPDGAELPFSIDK

[3] = Inhibition of Avian influenza virus A/DK/HK/313/78 (H5N3) hemagglutininin activity in chicken erythrocytes after 1 hr; type: cell-based

Chain of Neuraminidase (B4URF0 whole entry): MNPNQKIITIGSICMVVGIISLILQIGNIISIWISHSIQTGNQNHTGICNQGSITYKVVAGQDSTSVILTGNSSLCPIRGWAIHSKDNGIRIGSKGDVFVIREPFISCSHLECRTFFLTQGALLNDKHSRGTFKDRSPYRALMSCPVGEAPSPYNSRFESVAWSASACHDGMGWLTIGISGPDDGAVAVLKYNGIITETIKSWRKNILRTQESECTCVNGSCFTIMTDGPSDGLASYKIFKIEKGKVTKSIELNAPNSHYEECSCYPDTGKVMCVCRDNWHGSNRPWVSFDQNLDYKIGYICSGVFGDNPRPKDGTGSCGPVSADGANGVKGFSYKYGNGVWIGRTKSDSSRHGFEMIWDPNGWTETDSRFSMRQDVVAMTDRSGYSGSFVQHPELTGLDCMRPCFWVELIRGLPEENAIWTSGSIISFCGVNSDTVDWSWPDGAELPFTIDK

Row | SMILES | EC50 (Neuraminidase) [µM] | EC50 [1] [µM] | EC50 [2] [µM] | IC50 [3] [µM]
1 | C=CC(=O)N[C@H]1[C@H]([C@H](O)[C@H](O)CO)OC(O)(C(=O)O)C[C@@H]1O (stereo not given in full) | 609 | 1080 | 2480 | > 250
2 | C=CC(=O)N[C@H]1[C@H]([C@H](O)[C@H](O)CO)O[C@@](SCCCCCCCCCCCC)(C(=O)O)C[C@@H]1O | 533 | 428 | 1350 | –
3 | C=CC(=O)NCCCCCC(=O)N[C@H]1[C@H]([C@H](O)[C@H](O)CO)O[C@@](SCCCCCCCCCCCC)(C(=O)O)C[C@@H]1O | 102 | 840 | 743 | –
